Earlier results, collected in patent US8790688B2, “Wound care device for local treatment of pain in a wound” (Coloplast A/S, priority 2001, dated 2014).

Conditions: reported lowest range for systemic effect

Going from `CC(C)Cc1ccc(C(C)C(=O)O)cc1` (stereo not shown) [Ibuprofen] to `CC(C(=O)O)c1cccc(C(=O)c2ccccc2)c1` (stereo not shown) [Ketoprofen], the “plasma concentration for systemic effect in the lowest range” value falls from 10000 ng/mL to 3000 ng/mL (3.3-fold).

Compared with `CC(=O)Oc1ccccc1C(=O)O` [Acetylsalicylic acid], `CN1C(C(=O)Nc2ccccn2)=C(O)c2ccccc2S1(=O)=O` [Piroxicam] is 270-fold lower in “plasma concentration for systemic effect in the lowest range” value: 270000 ng/mL for the first, 1000 ng/mL for the second.
